Laboratory results taken from patent US6737383B1, “Herbicidal oxadiazolidines” (priority 1999, dated 2004).

Legend:
bedstraw = assay: Test B pre/postemergence bedstraw; format: in vivo, Galium aparine
In short: (§1)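 Test chemicals in a non-phytotoxic solvent mixture with surfactant were sprayed preemergence onto planted seeds and postemergence onto plants 2 to 18 cm tall (1- to 4-leaf stage). After twelve to sixteen days in a greenhouse, injury was visually rated against untreated controls from 0 (no effect) to 10 (complete control).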

surinam grass = assay: Test B pre/postemergence surinam grass; format: in vivo, Brachiaria decumbens
In short: as §1

cocklebur = assay: Test B pre/postemergence cocklebur; format: in vivo, Xanthium strumarium
In short: as §1

corn = assay: Test B pre/postemergence corn; format: in vivo, Zea mays
In short: as §1

crabgrass = assay: Test B pre/postemergence crabgrass; format: in vivo, Digitaria sanguinalis
In short: as §1

morningglory = assay: Test B pre/postemergence morningglory; format: in vivo, Ipomoea hederacea
In short: as §1

pigweed = assay: Test B pre/postemergence pigweed; format: in vivo, Amaranthus retroflexus
In short: as §1

rape = assay: Test B pre/postemergence rape; format: in vivo, Brassica napus
In short: as §1

soybean = assay: Test B pre/postemergence soybean; format: in vivo, Glycine max
In short: as §1

sugar beet = assay: Test B pre/postemergence sugar beet; format: in vivo, Beta vulgaris
In short: as §1

velvetleaf = assay: Test B pre/postemergence velvetleaf; format: in vivo, Abutilon theophrasti
In short: as §1

wild oat = assay: Test B pre/postemergence wild oat; format: in vivo, Avena fatua
In short: as §1

rice = assay: Test B flood test rice; format: in vivo, Oryza sativa
In short: (§2)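 Read-out is a visual response score from 0 (no effect) to 10 (complete control), assigned by comparison with untreated controls. Treatment was applied at the 2-leaf stage, and plants stayed in the greenhouse for twelve to sixteen days before scoring.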

smallflower flatsedge = assay: Test B flood test smallflower flatsedge; format: in vivo, Cyperus difformis
In short: as §2

duck salad = assay: Test B flood test duck salad; format: in vivo, Heteranthera limosa
In short: as §2

bamyardgrass = assay: Test B flood test barnyardgrass; format: in vivo, Echinochloa crus-galli
In short: as §2

[1] = Preemergence, Rate 62 g/ha, scale of 0 to 10 where 0 is no effect and 10 is complete control
[2] = Preemergence, Rate 125 g/ha, 0 is no effect, 10 is complete control
[3] = Preemergence, Rate 250 g/ha, scale 0 to 10, 0 is no effect, 10 is complete control
[4] = Preemergence, Rate 500 g/ha, scale of 0 to 10 where 0 is no effect and 10 is complete control
[5] = Rate 62 g/ha, Postemergence, scale of 0 to 10 where 0 is no effect and 10 is complete control
[6] = Rate 125 g/ha, Postemergence, scale 0 to 10
[7] = Rate 500 g/ha, Postemergence, scale 0 to 10
[8] = Rate 62 g/ha, headed Pre-emergence (flood test species), scale 0 to 10 (0 no effect, 10 complete control)
[9] = Rate 125 g/ha, Pre-emergence, flood test species, scale 0 to 10 where 0 is no effect and 10 is complete control
[10] = Rate 250 g/ha, Pre-emergence, flood-test species, scale 0 to 10, 0 is no effect, 10 is complete control
[11] = Rate 500 g/ha, headed Pre-emergence (flood test species), scale 0 to 10 (0 no effect, 10 complete control)

## CC(C)N(C(=O)n1oc(=O)n(-c2ccc(OC(F)(F)F)cc2)c1=O)c1ccc(F)cc1 [Compound 202]
bedstraw; [1]
  Bedstraw plant response rating: 0
bedstraw; [2]
  Bedstraw plant response rating (0 to 10 scale): 0
bedstraw; [3]
  Bedstraw plant response rating: 6
bedstraw; [4]
  Plant response rating, Bedstraw: 2
bedstraw; [5]
  Bedstraw plant response rating: 1
bedstraw; [6]
  Bedstraw plant response rating: 2
bedstraw; Rate 250 g/ha, Postemergence
  Plant response rating (0 to 10; 0 is no effect, 10 is complete control), Bedstraw: 4
bedstraw; [7]
  Bedstraw plant response rating: 4
Surinam grass; [1]
  B. signalgrass plant response rating: 0
Surinam grass; [2]
  B. signalgrass plant response rating (0 to 10 scale): 0
Surinam grass; [3]
  B. signalgrass plant response rating: 0
Surinam grass; [4]
  Plant response rating, B. signalgrass: 0
Surinam grass; [5]
  B. signalgrass plant response rating: 0
Surinam grass; Rate 125 g/ha, Postemergence, scale 0 (no effect) to 10 (complete control)
  B. signalgrass plant response rating: 0
Surinam grass; Rate 250 g/ha, Postemergence, scale 0 to 10, 0 is no effect, 10 is complete control
  Plant response rating, B. signalgrass: 0
Surinam grass; Rate 500 g/ha, Postemergence, scale 0 to 10, 0 no effect, 10 complete control
  B. signalgrass plant response rating: 0
cocklebur; [1]
  Cocklebur plant response rating: 0
cocklebur; [2]
  Cocklebur plant response rating (0 to 10 scale): 0
cocklebur; [3]
  Cocklebur plant response rating: 0
cocklebur; [4]
  Plant response rating, Cocklebur: 0
cocklebur; [5]
  Cocklebur plant response rating: 0
cocklebur; [6]
  Cocklebur plant response rating: 0
cocklebur; Rate 250 g/ha, Postemergence
  Plant response rating (0 to 10; 0 is no effect, 10 is complete control), Cocklebur: 2
cocklebur; [7]
  Cocklebur plant response rating: 2
corn; [1]
  Corn plant response rating: 0
corn; [2]
  Corn plant response rating (0 to 10 scale): 0
corn; [3]
  Corn plant response rating: 0
corn; [4]
  Plant response rating, Corn: 0
corn; [5]
  Corn plant response rating: 0
corn; [6]
  Corn plant response rating: 0
corn; Rate 250 g/ha, Postemergence
  Plant response rating (0 to 10; 0 is no effect, 10 is complete control), Corn: 0
corn; [7]
  Corn plant response rating: 0
crabgrass; [1]
  Crabgrass plant response rating: 3
crabgrass; [2]
  Crabgrass plant response rating (0 to 10 scale): 4
crabgrass; [3]
  Crabgrass plant response rating: 6
crabgrass; [4]
  Plant response rating, Crabgrass: 9
crabgrass; [5]
  Crabgrass plant response rating: 0
crabgrass; [6]
  Crabgrass plant response rating: 0
crabgrass; Rate 250 g/ha, Postemergence
  Plant response rating (0 to 10; 0 is no effect, 10 is complete control), Crabgrass: 1
crabgrass; [7]
  Crabgrass plant response rating: 4
morningglory; [1]
  Morningglory plant response rating: 0
morningglory; [2]
  Morningglory plant response rating (0 to 10 scale): 0
morningglory; [3]
  Morningglory plant response rating: 0
morningglory; [4]
  Plant response rating, Morningglory: 1
morningglory; [5]
  Morningglory plant response rating: 2
morningglory; [6]
  Morningglory plant response rating: 5
morningglory; Rate 250 g/ha, Postemergence
  Plant response rating (0 to 10; 0 is no effect, 10 is complete control), Morningglory: 8
morningglory; [7]
  Morningglory plant response rating: 9
pigweed; [1]
  Redroot pigweed plant response rating: 0
pigweed; [2]
  Redroot pigweed plant response rating (0 to 10 scale): 0
pigweed; [3]
  Redroot pigweed plant response rating: 8
pigweed; [4]
  Plant response rating, Redroot pigweed: 3
pigweed; [5]
  Redroot pigweed plant response rating: 3
pigweed; [6]
  Redroot pigweed plant response rating: 4
pigweed; Rate 250 g/ha, Postemergence
  Plant response rating (0 to 10; 0 is no effect, 10 is complete control), Redroot pigweed: 6
pigweed; [7]
  Redroot pigweed plant response rating: 7
rape; [1]
  Rape plant response rating: 0
rape; [2]
  Rape plant response rating (0 to 10 scale): 0
rape; [3]
  Rape plant response rating: 0
rape; [4]
  Plant response rating, Rape: 0
rape; [5]
  Rape plant response rating: 1
rape; [6]
  Rape plant response rating: 1
rape; Rate 250 g/ha, Postemergence
  Plant response rating (0 to 10; 0 is no effect, 10 is complete control), Rape: 1
rape; [7]
  Rape plant response rating: 4
soybean; [1]
  Soybean plant response rating: 0
soybean; [2]
  Soybean plant response rating (0 to 10 scale): 0
soybean; [3]
  Soybean plant response rating: 0
soybean; [4]
  Plant response rating, Soybean: 0
soybean; [5]
  Soybean plant response rating: 2
soybean; [6]
  Soybean plant response rating: 2
soybean; Rate 250 g/ha, Postemergence
  Plant response rating (0 to 10; 0 is no effect, 10 is complete control), Soybean: 3
soybean; [7]
  Soybean plant response rating: 3
Sugar beet; [1]
  Sugarbeets plant response rating: 0
Sugar beet; [2]
  Sugarbeets plant response rating (0 to 10 scale): 0
Sugar beet; [3]
  Sugarbeets plant response rating: 3
Sugar beet; [4]
  Plant response rating, Sugarbeets: 1
Sugar beet; [5]
  Sugarbeets plant response rating: 0
Sugar beet; [6]
  Sugarbeets plant response rating: 3
Sugar beet; Rate 250 g/ha, Postemergence
  Plant response rating (0 to 10; 0 is no effect, 10 is complete control), Sugarbeets: 4
Sugar beet; [7]
  Sugarbeets plant response rating: 4
velvetleaf; [1]
  Velvetleaf plant response rating: 0
velvetleaf; [3]
  Velvetleaf plant response rating: 6
velvetleaf; [4]
  Plant response rating, Velvetleaf: 1
velvetleaf; [5]
  Velvetleaf plant response rating: 0
velvetleaf; [6]
  Velvetleaf plant response rating: 0
velvetleaf; Rate 250 g/ha, Postemergence
  Plant response rating (0 to 10; 0 is no effect, 10 is complete control), Velvetleaf: 0
Wild oat; [1]
  Wild oats plant response rating: 0
Wild oat; [3]
  Wild oats plant response rating: 0
Wild oat; [4]
  Plant response rating, Wild oats: 5
Wild oat; [5]
  Wild oats plant response rating: 0
Wild oat; [6]
  Wild oats plant response rating: 0
Wild oat; Rate 250 g/ha, Postemergence
  Plant response rating (0 to 10; 0 is no effect, 10 is complete control), Wild oats: 0
rice; [8]
  Rice plant response rating: 0
rice; [9]
  Rice plant response rating: 0
rice; [10]
  Rice plant response rating: 0
rice; [11]
  Plant response rating, Rice: 0
Smallflower flatsedge; [8]
  S. Flatsedge plant response rating: 0
Smallflower flatsedge; [9]
  S. Flatsedge plant response rating: 0
Smallflower flatsedge; [10]
  S. Flatsedge plant response rating: 0
Smallflower flatsedge; Rate 500 g/ha, Pre-emergence, flood test species, scale 0 to 10 (0 no effect, 10 complete control)
  S. Flatsedge plant response rating: 0
Duck salad; [8]
  Ducksalad plant response rating: 0
Duck salad; [9]
  Ducksalad plant response rating: 0
Duck salad; [10]
  Ducksalad plant response rating: 0
Duck salad; [11]
  Plant response rating, Ducksalad: 0
bamyardgrass; [8]
  Barnyardgrass plant response rating: 0
bamyardgrass; [9]
  Barnyardgrass plant response rating: 0
bamyardgrass; [10]
  Barnyardgrass plant response rating: 0
bamyardgrass; [11]
  Plant response rating, Barnyardgrass: 0
